How the values were obtained:
Humulin® N (U40) = experiment: Modified 10X Glycerin Stress Test (Mod.10X-GST): HMWP growth by size exclusion HPLC; assay type: physicochemical, human
Experimental: One milliliter of Humulin® N (U40, Eli Lilly & Co., Indianapolis IN, USA) is spiked with about 160 mg (about 128 µl) of glycerin to be tested. This glycerin level is about ten times the normal level found in commercial products. Another milliliter of Humulin® N U40 is spiked with 128 µL of water. Both samples are stored at 30°C for 7 days. The high molecular weight protein (HMWP) level of the two samples is then measured by size exclusion HPLC chromatography under denaturing conditions [e.g., Waters column labeled "Protein-Pak 125 insulin assay certified", Waters Corporation (Milford, MA, USA) part number 20574; mobile phase 65 parts of a 1 mg/mL L-arginine solution, 20 parts of acetonitrile and 15 parts of glacial acetic acid]. The test samples are solubilized by acidification with a small volume of 9.6 N HCl prior to analysis.
The HMWP growth in the sample is calculated as the HMWP level in the 30°C test sample minus the HMWP level in the water spiked control. Percent growth is reported per 7 day period.

Humulin® R (U40) = experiment: 10X Glycerin Stress Test (10X-GST): HMWP growth by size exclusion HPLC; assay type: physicochemical, human; settings: Humulin® R with 160 mg/mL glycerin, 7 days at 30°C minus frozen control
Experimental: The 10X Glycerin Stress Test (10X-GST) measures the formation of covalent dimers and polymers in an insulin composition. Glycerin to be tested is added to Humulin® R (U40, Eli Lilly & Co., Indianapolis IN, USA) to a final concentration of 160 mg/mL of glycerin, i.e., ten times the level of glycerin normally used in this formulation. One aliquot of the resulting formulation is incubated at 30°C for 7 days, while a second aliquot is stored frozen over the same time period. Then, the high molecular weight protein (HMWP) level of the two aliquots is measured by size exclusion HPLC chromatography under denaturing conditions (e.g., Zorbax GF 250 Special column; mobile phase 65 parts of 0.1M ammonium phosphate buffer at pH 7.5 and 35 parts acetonitrile; detection at 214 nm). The growth of HMWP in the test formulation is the concentration of HMWP in the 30°C sample minus the concentration of HMWP in the frozen control.

[1] = Humulin® N with treated or untreated glycerin, 7 days at 30°C, Table 7
[2] = Humulin® N spiked with about 160 mg glycerin per mL, 7 days at 30°C minus water spiked control, Table 5

Structure (SMILES) | Mod.10X-GST Test (Humulin® N (U40); [1]) [%] | Mod.10X-GST Test (Humulin® N (U40); [2]) [%] | 10X-GST Test (Humulin® R (U40))
OCC(O)CO [Sample 5, glycerin] | -0.27 |  | 
OCC(O)CO [Sample 6, glycerin] | 4.68 | 0.13 | 0.13
OCC(O)CO [Sample 2, glycerin] | 1.58 |  | 
OCC(O)CO [Sample 8, glycerin] |  | 0.17 | 0.01
OCC(O)CO [Sample 1, glycerin] | 1.84 |  | 
OCC(O)CO [Sample 7, glycerin] | 3.65 | 0.09 | 0.22
OCC(O)CO [Sample 10, glycerin] | -0.03 |  | 

Reference: EP1523993A1, “Polypeptide compositions with improved stability” (Eli Lilly & Company, priority 1999, dated 2001)
